{"source": "patent US20230146675A1", "about": "“PYRIMIDO[5,4-d]PYRIMIDINE DERIVATIVES AS ENT INHIBITORS FOR THE TREATMENT OF CANCERS, AND COMBINATION THEREOF WITH ADENOSINE RECEPTOR ANTAGONISTS” (ITEOS BELGIUM SA, priority 2020, published 2023)", "key": {"[1]": {"target": "T1, Human phosphodiesterase-4B1 (Homo sapiens, UniProt Q07343)", "T1 construct": "host or cells: Sf9 cells", "T1 sequence (Q07343 whole entry)": "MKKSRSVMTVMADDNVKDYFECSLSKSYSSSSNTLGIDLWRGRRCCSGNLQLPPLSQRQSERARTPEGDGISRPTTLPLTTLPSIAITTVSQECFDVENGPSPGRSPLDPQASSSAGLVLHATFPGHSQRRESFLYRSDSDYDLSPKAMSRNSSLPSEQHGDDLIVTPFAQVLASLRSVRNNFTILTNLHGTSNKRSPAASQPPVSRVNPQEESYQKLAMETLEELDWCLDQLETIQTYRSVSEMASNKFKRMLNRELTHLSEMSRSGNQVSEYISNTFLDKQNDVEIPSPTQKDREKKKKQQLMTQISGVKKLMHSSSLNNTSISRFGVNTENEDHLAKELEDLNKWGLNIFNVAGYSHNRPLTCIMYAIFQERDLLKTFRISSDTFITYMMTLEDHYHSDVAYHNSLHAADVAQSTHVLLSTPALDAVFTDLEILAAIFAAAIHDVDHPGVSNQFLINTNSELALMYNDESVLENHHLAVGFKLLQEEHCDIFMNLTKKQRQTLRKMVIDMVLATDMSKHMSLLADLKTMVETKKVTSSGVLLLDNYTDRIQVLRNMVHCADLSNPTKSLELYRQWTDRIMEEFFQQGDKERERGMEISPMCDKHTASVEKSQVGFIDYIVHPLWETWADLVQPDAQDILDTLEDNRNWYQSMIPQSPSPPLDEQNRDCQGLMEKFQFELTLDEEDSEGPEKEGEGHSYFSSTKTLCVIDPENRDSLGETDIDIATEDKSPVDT", "assay": "PDE4B1 (h) assay", "format": "biochemical", "experimental": "The test compound (compound 72), reference compound or water (control) were added to a buffer containing 40 mM Tris/HCl (pH 7.4) and 8 mM MgCl2, 450 nM cAMP and 0.25 μCi [3H]cAMP. Thereafter, the reaction was initiated by addition of the enzyme (about 10 U) and the mixture was incubated for 20 min at 22° C. For basal control measurements, the enzyme was omitted from the reaction mixture. Following incubation SPA beads were added. After 30 min at 22° C. under shaking, the amount of [3H]5′AMP was quantified with a scintillation counter (MicroBeta, Perkin Elmer). The results were expressed as a percent inhibition of the control enzyme activity. The standard inhibitory reference compound was Ro 20-1724, which was tested in each experiment at several concentrations to obtain an inhibition curve from which its IC50 value was calculated. • Human phosphodiesterase-4B1 quantified by measuring the formation of 5′AMP from cAMP using a human recombinant enzyme expressed in Sf9 cells.\n(§1) The test compound (compound 72), reference compound or water (control) were added to a buffer containing 40 mM Tris/HCl (pH 7.4), 8 mM MgCl2 and 1.7 mM EGTA/NaOH, 450 nM cAMP and 0.25 μCi [3H]cAMP. […] After 30 min at 22° C. under shaking, the amount of [3H]5′AMP was quantified with a scintillation counter (MicroBeta, Perkin Elmer). The results were expressed as a percent inhibition of the control enzyme activity. […]"}, "[2]": {"target": "T2, Human phosphodiesterase-7A1 (Homo sapiens, UniProt Q13946)", "T2 construct": "host or cells: Sf9 cells", "T2 sequence (Q13946 whole entry)": "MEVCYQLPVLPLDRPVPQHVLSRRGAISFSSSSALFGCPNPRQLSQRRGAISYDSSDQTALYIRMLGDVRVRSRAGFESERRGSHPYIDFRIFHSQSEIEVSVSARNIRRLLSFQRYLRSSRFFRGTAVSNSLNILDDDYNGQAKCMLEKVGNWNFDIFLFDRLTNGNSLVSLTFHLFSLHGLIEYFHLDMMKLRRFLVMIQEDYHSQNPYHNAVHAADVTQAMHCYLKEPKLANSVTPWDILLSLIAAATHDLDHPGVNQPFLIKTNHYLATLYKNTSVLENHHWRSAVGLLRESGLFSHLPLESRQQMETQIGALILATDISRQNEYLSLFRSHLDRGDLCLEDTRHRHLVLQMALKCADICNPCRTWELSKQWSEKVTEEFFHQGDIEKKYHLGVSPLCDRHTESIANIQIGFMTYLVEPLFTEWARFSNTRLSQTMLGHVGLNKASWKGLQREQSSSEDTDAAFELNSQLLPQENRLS", "assay": "PDE7A1 (h) assay", "format": "biochemical", "experimental": "The test compound (compound 72), reference compound or water (control) were added to a buffer containing 40 mM Tris/HCl (pH 7.4), 8 mM MgCl2 and 1.7 mM EGTA/NaOH, 1.8 μM cAMP and 1 μCi [3H]cAMP. Thereafter, the reaction was initiated by addition of the enzyme (about 2 ng) and the mixture was incubated for 15 min at 22° C. For basal control measurements, the enzyme was omitted from the reaction mixture. Following incubation SPA beads were added. After 30 min at 22° C. under shaking, the amount of [3H]5′AMP was quantified with a scintillation counter (MicroBeta, Perkin Elmer). The results were expressed as a percent inhibition of the control enzyme activity. The standard inhibitory reference compound was EHNA, which was tested in each experiment at several concentrations to obtain an inhibition curve from which its IC50 value was calculated. • Human phosphodiesterase-7A1 quantified by measuring the formation of 5′AMP from cAMP using a human recombinant enzyme expressed in Sf9 cells\nas §1, with “7.4) and” for “7.4),”, “MgCl2, 63” for “MgCl2 and 1.7 mM EGTA/NaOH, 450”, “0.035” for “0.25”"}, "human ENT1": {"target": "T3, human ENT1 (Homo sapiens, UniProt Q99808)", "T3 sequence (Q99808 1-456)": "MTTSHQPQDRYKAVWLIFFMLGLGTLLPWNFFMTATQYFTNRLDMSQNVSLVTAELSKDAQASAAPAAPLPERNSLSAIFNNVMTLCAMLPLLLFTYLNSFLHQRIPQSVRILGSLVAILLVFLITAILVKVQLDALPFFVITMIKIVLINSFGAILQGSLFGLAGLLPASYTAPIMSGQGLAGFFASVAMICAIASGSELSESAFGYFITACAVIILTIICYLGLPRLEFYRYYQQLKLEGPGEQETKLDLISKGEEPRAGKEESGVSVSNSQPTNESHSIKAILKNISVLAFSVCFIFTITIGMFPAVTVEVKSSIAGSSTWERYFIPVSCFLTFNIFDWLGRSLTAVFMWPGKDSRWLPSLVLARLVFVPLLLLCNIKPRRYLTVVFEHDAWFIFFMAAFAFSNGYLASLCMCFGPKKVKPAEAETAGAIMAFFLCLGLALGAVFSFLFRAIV", "assay": "ENT1 binding assay (competition with Sahenta-DY647 on JAR cells)", "parameters": "JAR cells expressing ENT1 were bought from ATCC; host or cells: JAR cells", "settings": "binned IC50", "summary_of_the_method": "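JAR cells were incubated with test compounds and the fluorescent ligand Sahenta-DY647 in competition. Plates were washed twice by centrifugation (4 min, 400 rcf, 4 °C). Binding potency was derived from the final fluorescence.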"}}, "data": [{"smiles": "COCCN(CCOC)c1nc(N2CCN(C)C(=O)C2)c2nc(N(CCOC)CCOC)nc(N3CCC(OC)CC3)c2n1", "note": "[Compound 72, 4-(2,6-bis(bis(2-methoxyethyl)amino)-8-(4-methoxypiperidin-1-yl)pyrimido[5,4-d]pyrimidin-4-yl)-1-methylpiperazin-2-one]", "values": [{"measurement": "IC50", "setting": "[1]", "result": "1 to 10", "unit": "µM"}, {"measurement": "IC50", "setting": "[2]", "result": "> 10", "unit": "µM"}, {"measurement": "IC50", "setting": "human ENT1", "result": "< 100", "unit": "nM"}]}]}
